# Source: patent publication US20100087385A1 (priority 2006, published 2010)
# Tested on: TNBS induced IBD rats
# Test: Experiment III: TNBS-ethanol induced IBD in rats
# Assay type: in vivo, Wistar rats
# Settings: for Colonic lesion score: CON 0, M 6.00 ± 3.25; for Colon weight of length: CON 0.106 ± 0.011, M 0.376 ± 0.133; for MDA / MPO / SOD: colon homogenate; for MDA: CON 0.0360 ± 0.00632, M 0.0274 ± 0.0055; for MPO: CON 21.993 ± 2.061, M 134.038 ± 1.979; for SOD: CON 46.400 ± 8.202, M 38.005 ± 4.121
# Source text: Wister rats were randomly divided into seven groups. There are four […] in each group, including normal control (CON) group, Model (M) group, positive control (SASP) group, diammonium glycyrrhizinate gavage administration (DI) group, diammonium glycyrrhizinate low dose (DGD) group, diammonium glycyrrhizinate medium dose (DGZ) group, and diammonium glycyrrhizinate high dose (DGG) group. No water and diets restriction were applied to mice during the period of the experiment.
# Rats were anesthetized by ether. TNBS dissolved in 30% ethanol were injected into rat colon 8 cm in depth through anus with an i.v. tubing. The concentration of TNBS was 100 mg/Kg at the volumes of 0.20 ml/100 g. The rats were held up side down for 1 minute after the injection before released back to the cages.
# There are seven groups total in this test. Rats in all groups were treated identically to create IBD models and the experimental conditions are described in the following.
# Normal control (Con) group: Both TNBS-ethanol solution and treated drugs were replaced by normal saline. The dose of drug for treatment was 0.20 ml/100 g. Model (M) group: After creating the TNBS-ethanol induced IBD model in rats, normal saline instead of drug was used as a blank control for the comparison of drug treatment. The drug dose of IBD treatment was 0.20 ml/100 g. SASP group: SASP (22.5 mg/100 g) was used as a positive control. SASP was applied to rats through anus after ether anesthesia. Diammonium glycyrrhetate gavage administration (DI) group: Diammonium glycyrrhetate (10 mg/kg) was provided to rats by gavage after ether anesthesia. Diammonium glycyrrhetate, anal administration, low dose (DGD) group: Diammonium glycyrrhetate (2 mg/kg) was provided to rats through anus after ether anesthesia. Diammonium glycyrrhetate, anal administration, medium dose (DGZ) group: Diammonium glycyrrhetate (10 mg/kg) was provided to rats through anus after ether anesthesia. Diammonium glycyrrhetate, anal administration, high dose (DGG) group: Diammonium glycyrrhetate (50 mg/kg) was provided to rats through anus after ether anesthesia.
# During the experimental period, daily activities and body weights of rats were investigated and recorded. Ten days after IBD model establishment, fasting was introduced to rats but water was provided continuously. Before sacrificing the rats, feces samples were taken for OB test; eyeballs were removed for blood sampling and serum samples were obtained after centrifugation. Radioimmunoassay kits were used to detect IL-1β, IL-6 and TNF-α in serum. The rats were cervical executed; organs of spleen and thymus were removed and weighted for the index calculation. The whole length of colon was weighted; weight per unit length of colon was calculated. The degrees of colon injury were evaluated according to the reference 23 with some modifications. We included the changes of intestinal adhesion, colon ulcer, and inflammatory as the score marks. The standard of score is same as we mentioned previously. The 3 mm colon samples were taken from the end part of colon; fixed by either neutral formaldehyde solution or 2.5% of glutaraldehyde solution for anatomy dissecting. The samples fixed by neutral formaldehyde solution were sent to perform H-E staining and immunohistochemical staining (IL-10, COX-II, and ICAM-1). The samples fixed by 2.5% of glutaraldehyde solution were photo-imaged by both scanning electron microscope and transmission electron microscope. The rest of samples were handled at ice-cold temperature to make 10% homogenization solution and stored at −20° C. for future use. MOP, SOD, MDA and amounts of tissue proteins were determined by Maehly, Pyrogallol, TBA, and Lowry methods.
# [1] = DG medium dose group, through anus 10 mg/kg
# [2] = DGD group: through anus, low dose 2 mg/kg
# [3] = DGG group: through anus, high dose 50 mg/kg
# [4] = DGZ group: through anus, medium dose 10 mg/kg
# [5] = SASP group: 22.5 mg/100 g through anus
# [6] = positive control (SASP) group: 22.5 mg/100 g through anus
structure (smiles),measurement,setting,value
"CC1(C(=O)[O-])CCC2(C)CCC3(C)C(=CC(=O)C4C5(C)CCC([O-])C(C)(C)C5CCC43C)C2C1.[Na+].[Na+] (stereo not shown) [Disodium glycyrrhetate, disodium glycyrrhetate]",HE staining of colon tissue (FIG. 3),"DG gavage administration group, 10 mg/kg",less severe of symptoms with no ulcer formation
same,HE staining of colon tissue (FIG. 3),"DG high dose group, through anus 50 mg/kg",relieved symptoms and no ulcer formation is observed
same,HE staining of colon tissue (FIG. 3),"DG low dose group, through anus 2 mg/kg",relatively severe symptoms but without ulcer formation
same,HE staining of colon tissue (FIG. 3),[1],no ulcer formation is seen
same,colon mucosa by scanning electron microscope (FIG. 4),[1],relieved symptoms with less swelling
same,Colonic lesion score,"DGD group: through anus, low dose 2 mg/kg (table head: mg/100 g)",3.00 ± 1.69^ΔΔ
same,Colon weight of length,[2],0.385 ± 0.218 g/cm
same,Colonic lesion score,"DGG group: through anus, high dose 50 mg/kg (table head: mg/100 g)",1.50 ± 0.89^ΔΔ
same,Colon weight of length,[3],0.174 ± 0.059 g/cm
same,Colonic lesion score,"DGZ group: through anus, medium dose 10 mg/kg (table head: mg/100 g)",2.50 ± 1.39^ΔΔ
same,Colon weight of length,[4],0.177 ± 0.065 g/cm
same,Colonic lesion score,"DI group: gavage, 10 mg/kg (table head: mg/100 g)",2.00 ± 1.20^ΔΔ
same,Colon weight of length,"DI group: gavage, 10 mg/kg",0.240 ± 0.085 g/cm
same,MDA,[2],0.0431 ± 0.0243 µmol/mg
same,MPO,[2],141.993 ± 2.494 U/g
same,SOD,[2],28.847 ± 16.942 U/ml
same,MDA,[3],0.0338 ± 0.0115 µmol/mg
same,MPO,[3],111.753 ± 24.864 U/g
same,SOD,[3],59.984 ± 3.205^Δ U/ml
same,MDA,[4],0.0365 ± 0.0151 µmol/mg
same,MPO,[4],83.868 ± 16.465^Δ U/g
same,SOD,[4],46.095 ± 8.065 U/ml
same,MDA,"DI group: gavage, 10 mg/kg",0.0907 ± 0.0302 µmol/mg
same,MPO,"DI group: gavage, 10 mg/kg",100.576 ± 10.137^ΔΔ U/g
same,SOD,"DI group: gavage, 10 mg/kg",18.774 ± 8.700 U/ml
"O=C(O)c1cc(/N=N/c2ccc(S(=O)(=O)Nc3ccccn3)cc2)ccc1O [SASP, Sulfasalazine, reference compound]",Colonic lesion score,[5],3.00 ± 1.69^ΔΔ
same,Colon weight of length,[5],0.354 ± 0.087 g/cm
same,Thymus index,"SASP group: 22.5 mg/100 g through anus, CON 0.9302 ± 0.0984, M 0.0319 ± 0.1504",0.2375 ± 0.0792 mg/g
same,Spleen index,"SASP group: 22.5 mg/100 g through anus, CON 2.309 ± 0.135, M 3.893 ± 0.210",3.326 ± 0.552 mg/g
same,MDA,[5],0.0594 ± 0.0287 µmol/mg
same,MPO,[5],44.916 ± 3.525^ΔΔ U/g
same,SOD,[5],33.884 ± 2.656 U/ml
same,HE staining of colon tissue (FIG. 3),[6],symptoms are reduced with no ulcers formation
same,colon mucosa by scanning electron microscope (FIG. 4),[6],symptoms were relieved but with swelling in mucosa layer
